Test results: US20060035847A1, “Glucopyranosyloxyprazole derivatives and use thereof in medicines” (KISSEI PHARMACEUTICAL CO., LTD., priority 2000, published 2006)

These compounds were tested against T1, human SGLT2 (Homo sapiens, UniProt P31639, I433V) (assay: Assay for inhibitory effect on human SGLT2 activity (methyl-α-D-glucopyranoside uptake in COS-7 cells transiently expressing human SGLT2)). Conditions: inhibition of methyl-α-D-glucopyranoside uptake, COS-7 cells expressing human SGLT2, 37° C., 2 hours.
T1 construct: expressed in transfected cells; host or cells: COS-7 cells (RIKEN CELL BANK RCB0539), transient, electroporation
T1 sequence (P31639 1-672 I433V): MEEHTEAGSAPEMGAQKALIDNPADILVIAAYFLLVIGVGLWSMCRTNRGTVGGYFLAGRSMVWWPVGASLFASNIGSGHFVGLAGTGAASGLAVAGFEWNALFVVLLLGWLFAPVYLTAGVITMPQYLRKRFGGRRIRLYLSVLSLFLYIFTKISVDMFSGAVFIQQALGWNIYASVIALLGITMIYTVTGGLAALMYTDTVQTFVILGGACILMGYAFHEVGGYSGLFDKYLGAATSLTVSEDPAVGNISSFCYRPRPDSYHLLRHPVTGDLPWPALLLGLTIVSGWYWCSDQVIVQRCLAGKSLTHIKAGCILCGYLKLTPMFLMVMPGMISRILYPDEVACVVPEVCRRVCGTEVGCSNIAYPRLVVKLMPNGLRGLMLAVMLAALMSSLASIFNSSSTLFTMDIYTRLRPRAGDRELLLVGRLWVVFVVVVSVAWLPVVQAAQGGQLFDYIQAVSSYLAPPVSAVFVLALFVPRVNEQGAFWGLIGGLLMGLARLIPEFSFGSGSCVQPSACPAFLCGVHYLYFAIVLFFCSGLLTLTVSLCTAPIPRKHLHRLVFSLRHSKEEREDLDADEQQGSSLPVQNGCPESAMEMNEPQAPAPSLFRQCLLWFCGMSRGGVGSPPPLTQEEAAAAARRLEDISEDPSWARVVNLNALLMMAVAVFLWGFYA
Type: cell-based
Description: Assay for Inhibitory Effect on Human SGLT2 Activity
1) Construction of the Plasmid Vector Expressing Human SGLT2
Preparation of the cDNA library for PCR amplification was performed by reverse transcription of a total RNA deprived from human kidney (Ori gene) with oligo dT as the primer, using SUPERSCRIPT Preamplification System (Gibco-BRL: LIFE TECHNOLOGIES). The DNA fragment coding for human SGLT2 was amplified by the PCR reaction, in which the human kidney cDNA library described above was used as the template and the following oligo nucleotides 0702F and 0712R, presented as sequence number 1 and 2 respectively, were used as the primers. The amplified DNA fragment was ligated into pCR-Blunt (Invitrogen), a vector for cloning, according to standard method of the kit. The Escherichia coli HB101 was transformed according to usual method and then selection of the transformants was performed on the LB agar medium containing 50 μg/mL of kanamycin. After plasmid DNA was extracted and purified from the one of the transformants, amplifying of the DNA fragment coding for human SGLT2 was performed by the PCR reaction, in which the following oligo nucleotides 0714F and 0715R, presented as sequence number 3 and 4 respectively, were used as the primers. The amplified DNA fragment was digested with restriction enzymes, Xho I and Hind III, and then purified with Wizard Purification System (Promega). This purified DNA fragment was inserted at into the corresponding restriction sites of pcDNA3.1 (−) Myc/His—B (Invitrogen), a vector for expressing of fusion protein. The Escherichia coli HB101 was transformed according to usual method and then selection of the transformant was performed on the LB agar medium containing 100 μg/mL of ampicillin. After plasmid DNA was extracted and purified from this transformant, the base sequence of the DNA fragment inserted at the multi-cloning sites of the vector pcDNA3.1 (−) Myc/His—B was analyzed. […] Sequentially, a clone in which valine is substituted for isoleucine-433 was obtained. This plasmid vector expressing human SGLT2 in which the peptide presented as sequence number 5 is fused to the carboxyl terminal alanine residue was designated KL29.
2) Preparation of the Cells Expressing Transiently Human SGLT2
KL29, the plasmid coding human SGLT2, was transfected into COS-7 cells (RIKEN CELL BANK RCB0539) by electroporation. Electroporation was performed with GENE PULSER II (Bio-Rad Laboratories) under the condition: 0.290 kV, 975 μF, 2×10^6 cells of COS-7 cell and 20 μg of KL29 in 500 μL of OPTI-MEM I medium (Gibco-BRL: LIFE TECHNOLOGIES) in the 0.4 cm type cuvette. After the gene transfer, the cells were harvested by centrifugation and resuspended with OPTI-MEM I medium (1 mL/cuvette). To each well in 96-wells plate, 125 μL of this cell suspension was added. After overnight culture at 37° C. under 5% CO2, 125 μL of DMEM medium which is containing 10% of fetal bovine serum (Sanko Jyunyaku), […] sodium penicillin G (Gibco-BRL: LIFE TECHNOLOGIES), 100 μg/mL streptomycin sulfate (Gibco-BRL: LIFE TECHNOLOGIES) was added to each well. These cells were cultured until the next day and then they were used for the measurement of the inhibitory activity against the uptake of methyl-α-D-glucopyranoside.
3) Measurement of the Inhibitory Activity Against the Uptake of methyl-α-D-glucopyranoside
After a test compounds was dissolved in dimethyl sulfoxide and diluted with the uptake buffer (a pH 7.4 buffer containing 140 mM sodium chloride, 2 mM potassium chloride, 1 mM calcium chloride, 1 mM magnesium chloride, 5 mM methyl-α-D-glucopyranoside, 10 mM 2-[4-(2-hydroxyethyl)-1-piperazinyl]ethane sulfonic acid and 5 mM tris(hydroxymethyl)aminomethane), each diluent was used as test sample for measurement of the inhibitory activity. […]

Compound	IC50 [nM]
COc1ccc(Cc2c(O[C@@H]3O[C@H](CO)[C@@H](O)[C@H](O)[C@H]3O)n[nH]c2C(F)(F)F)cc1 [Reference Example 50, 3-(β-D-Glucopyranosyloxy)-4-[(4-methoxyphenyl)methyl]-5-trifluoromethyl-1H-pyrazole]	415
Cc1c(Cc2ccc(OC(C)C)cc2)c(O[C@@H]2O[C@H](CO)[C@@H](O)[C@H](O)[C@H]2O)nn1C(C)C [Reference Example 72, 3-(β-D-Glucopyranosyloxy)-4-[(4-isopropoxyphenyl)methyl]-1-isopropyl-5-methylpyrazole]	369
CSc1ccc(Cc2c(O[C@@H]3O[C@H](CO)[C@@H](O)[C@H](O)[C@H]3O)nn(C)c2C(F)(F)F)cc1 [Reference Example 54, 3-(β-D-Glucopyranosyloxy)-1-methyl-4-[(4-methylthiophenyl)-methyl]-5-trifluoromethylpyrazole]	835
CCc1[nH]nc(O[C@@H]2O[C@H](CO)[C@@H](O)[C@H](O)[C@H]2O)c1Cc1ccc(SC)cc1 [Reference Example 46, 5-Ethyl-3-(β-D-glucopyranosyloxy)-4-[(4-methylthiophenyl)-methyl]-1H-pyrazole]	509
Cc1[nH]nc(O[C@@H]2O[C@H](CO)[C@@H](O)[C@H](O)[C@H]2O)c1Cc1ccc(OC(C)C)cc1 [Reference Example 37, 3-(β-D-Glucopyranosyloxy)-4-[(4-isopropoxyphenyl)methyl]-5-methyl-1H-pyrazole]	181
CSc1ccc(Cc2c(O[C@@H]3O[C@H](CO)[C@@H](O)[C@H](O)[C@H]3O)n[nH]c2C)cc1 [Reference Example 45, 3-(β-D-Glucopyranosyloxy)-5-methyl-4-[(4-methylthiophenyl)-methyl]-1H-pyrazole]	84
CCOc1ccc(Cc2c(O[C@@H]3O[C@H](CO)[C@@H](O)[C@H](O)[C@H]3O)n[nH]c2C)cc1 [Reference Example 41, 4-[(4-Ethoxyphenyl)methyl]-3-(β-D-glucopyranosyloxy)-5-methyl-1H-pyrazole]	185
CCCOc1ccc(Cc2c(O[C@@H]3O[C@H](CO)[C@@H](O)[C@H](O)[C@H]3O)n[nH]c2C)cc1 [Reference Example 40, 3-(β-D-Glucopyranosyloxy)-5-methyl-4-[(4-propoxyphenyl)-methyl]-1H-pyrazole]	702
CCc1ccc(Cc2c(O[C@@H]3O[C@H](CO)[C@@H](O)[C@H](O)[C@H]3O)n[nH]c2C(F)(F)F)cc1 [Reference Example 60, 4-[(4-Ethylphenyl)methyl]-3-(β-D-glucopyranosyloxy)-5-trifluoromethyl-1H-pyrazole]	634
Cc1[nH]nc(O[C@@H]2O[C@H](CO)[C@@H](O)[C@H](O)[C@H]2O)c1Cc1ccc(C(C)C)cc1 [Reference Example 47, 3-(β-D-Glucopyranosyloxy)-4-[(4-isopropylphenyl)methyl]-5-methyl-1H-pyrazole]	441

More lines, in order of falling IC50, values ahead:

IC50 [nM]	Compound
679	CSc1ccc(Cc2c(O[C@@H]3O[C@H](CO)[C@@H](O)[C@H](O)[C@H]3O)n[nH]c2C(F)(F)F)cc1 [Reference Example 48, 3-(β-D-Glucopyranosyloxy)-4-[(4-methylthiophenyl)methyl]-5-trifluoromethyl-1H-pyrazole]
441	CCCc1ccc(Cc2c(O[C@@H]3O[C@H](CO)[C@@H](O)[C@H](O)[C@H]3O)n[nH]c2C)cc1 [Reference Example 38, 3-(β-D-Glucopyranosyloxy)-5-methyl-4-[(4-propylphenyl)-methyl]-1H-pyrazole]
383	COc1ccc(Cc2c(O[C@@H]3O[C@H](CO)[C@@H](O)[C@H](O)[C@H]3O)n[nH]c2C)cc1 [Reference Example 51, 3-(β-D-Glucopyranosyloxy)-4-[(4-methoxyphenyl)methyl]-5-methyl-1H-pyrazole]
280	Cc1ccc(Cc2c(O[C@@H]3O[C@H](CO)[C@@H](O)[C@H](O)[C@H]3O)n[nH]c2C)cc1 [Reference Example 57, 3-(β-D-Glucopyranosyloxy)-5-methyl-4-[(4-methylphenyl)-methyl]-1H-pyrazole]
190	CCc1ccc(Cc2c(O[C@@H]3O[C@H](CO)[C@@H](O)[C@H](O)[C@H]3O)n[nH]c2C)cc1 [Reference Example 58, 4-[(4-Ethylphenyl)methyl]-3-(β-D-glucopyranosyloxy)-5-methyl-1H-pyrazole]
